IC50 data for 23 molecules are collected here from patent US9604996B2 (Bayer Pharma Aktiengesellschaft, priority 2013, dated 2017).

This assay deals with T1, human adenosine A2b receptor (Homo sapiens, UniProt P29275).
T1 construct: expressed in transfected cells; host or cells: CHO-K1 (Chinese Hamster Ovary) with CRE-luciferase reporter
T1 sequence (P29275 1-332): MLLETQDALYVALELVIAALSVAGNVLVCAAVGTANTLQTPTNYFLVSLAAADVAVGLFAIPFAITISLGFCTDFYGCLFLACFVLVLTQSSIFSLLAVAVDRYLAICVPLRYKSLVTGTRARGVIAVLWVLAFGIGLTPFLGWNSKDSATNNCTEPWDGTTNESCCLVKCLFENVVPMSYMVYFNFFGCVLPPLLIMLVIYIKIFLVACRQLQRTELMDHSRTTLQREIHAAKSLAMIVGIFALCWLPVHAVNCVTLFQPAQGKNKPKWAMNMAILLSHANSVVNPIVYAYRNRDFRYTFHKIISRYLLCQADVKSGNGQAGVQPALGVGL
The assay can be described thus: Cellular reporter gene (CRE-luciferase) A2b receptor antagonist assay in recombinant CHO-K1 cells stimulated with NECA. Type of assay: cell-based. The conditions noted are these: recombinant CHO-K1 cell line, co-incubation with EC50 concentration of NECA, 3 hours, in some cases means, rounded to two significant digits. The procedure: B-1. Cellular In Vitro Tests for Determining A2b Receptor Activity and Adenosine Receptor Selectivity
The identification of selective antagonists of the human adenosine A2b receptor and the quantification of the efficacy and selectivity of the compounds according to the invention was carried out with the aid of recombinant cell lines for the human adenosine receptors A1, A2a, A2b and A3. These cell lines were originally derived from an ovarepithelial cell of the hamster (Chinese Hamster Ovary, CHO-K1, American Type Culture Collection, Manassas, Va. 20108, USA). In addition to the respective recombinantly expressed adenosine receptor for testing the efficacy at the A1, A2a and A2b receptors, the cell lines contain a reporter gene construct where expression of the firefly (Photinus pyralis) luciferase is under the control of a promoter which can be activated via intracellular signal cascades by stimulation of the receptors with the (not subtype-selective) adenosine receptor agonist NECA (5′-N-ethylcarboxamidoadenosine) [S. J. Hill, J. G. Baker, S. Rhees, Curr. Opin. Pharmacol. 1, 526-532 (2001)].
In the case of the A2a and A2b cell lines, this is a minimal promoter having a plurality of cAMP-responsive elements (CRE). Stimulation of the Gs coupled A2b or A2a receptors by NECA ultimately leads, via formation of cAMP, to CRE-dependent induction of luciferase expression, which is detected 3 hours after the start of the incubation with NECA using a detection solution in a suitable luminometer. For testing the antagonists, initially, in a pre-experiment, the concentration of NECA which, at the test day in question, results in half-maximum stimulation of luciferase expression (EC50 concentration) is determined By joint incubation of this EC50 concentration of NECA with the substances to be tested, it is possible to determine their antagonistic activity.
Background: In a reporter assay the amount or activity of a reporter protein is the signal.
`Cc1c(C(=O)N2CCC(O)CC2)sc2c1c(=O)n(CCc1cccc(F)c1)c(=O)n2CCC(F)(F)F` [Example 9, 3-[2-(3-Fluorophenyl)ethyl]-6-[(4-hydroxypiperidin-1-yl)carbonyl]-5-methyl-1-(3,3,3-trifluoropropyl)thieno[2,3-d]pyrimidine-2,4(1H,3H)-dione]: the IC50 stood at 52 nM.
Then `Cc1c(C(=O)N2CCC(O)CC2)sc2c1c(=O)n(CC(C)(O)c1ccccc1)c(=O)n2CCC(F)(F)F` (single isomer, unassigned) [Example 133, 3-(2-Hydroxy-2-phenylpropyl)-6-[(4-hydroxypiperidin-1-yl)carbonyl]-5-methyl-1-(3,3,3-trifluoropropyl)thieno[2,3-d]pyrimidine-2,4(1H,3H)-dione], with 850 nM; and `Cc1c(C(=O)N2CCC(O)(CO)CC2)sc2c1c(=O)n(CCc1ccccc1)c(=O)n2CCOC(F)(F)F` [Example 110, 6-{[4-Hydroxy-4-(hydroxymethyl)piperidin-1-yl]carbonyl}-5-methyl-3-(2-phenylethyl)-1-[2-(trifluoromethoxy)ethyl]thieno[2,3-d]pyrimidine-2,4(1H,3H)-dione], with 14 nM; and `Cc1cccc(CCn2c(=O)c3c(C)c(C(=O)N4CCC(O)CC4)sc3n(CCC(F)(F)F)c2=O)c1` [Example 11, 6-[(4-Hydroxypiperidin-1-yl)carbonyl]-5-methyl-3-[2-(3-methylphenyl)ethyl]-1-(3,3,3-trifluoropropyl)thieno[2,3-d]pyrimidine-2,4(1H,3H)-dione], with 510 nM.
To `CCn1c(=O)c2c(C)c(C(=O)N3CCC(O)(CO)CC3)sc2n(CCOC(F)(F)F)c1=O` [Example 75, 3-Ethyl-6-{[4-hydroxy-4-(hydroxymethyl)piperidin-1-yl]carbonyl}-5-methyl-1-[2-(trifluoromethoxy)ethyl]thieno[2,3-d]pyrimidine-2,4(1H,3H)-dione] belongs 33 nM; to `CCCn1c(=O)c2c(C(F)F)c(C(=O)N3CCC(O)CC3)sc2n(CCC(F)(F)F)c1=O` [Example 141, 5-(Difluoromethyl)-6-[(4-hydroxypiperidin-1-yl)carbonyl]-3-propyl-1-(3,3,3-trifluoropropyl)thieno[2,3-d]pyrimidine-2,4(1H,3H)-dione], 57 nM.
`CCn1c(=O)c2c(C(F)F)c(C(=O)N3CCC(O)(CO)CC3)sc2n(CCC(F)(F)F)c1=O` [Example 126]: the concentration for half-maximal inhibition (IC50) was found to be 84 nM.
To `CCCn1c(=O)c2c(C)c(C(=O)N3CCNC(=O)C3)sc2n(CCOC(F)(F)F)c1=O` [Example 96, 5-Methyl-6-[(3-oxopiperazin-1-yl)carbonyl]-3-propyl-1-[2-(trifluoromethoxy)ethyl]thieno[2,3-d]pyrimidine-2,4(1H,3H)-dione] belongs 65 nM; to `CC1(O)CCN(C(=O)c2cc3c(=O)n(CCc4ccccc4)c(=O)n(CCC(F)(F)F)c3s2)CC1` [Example 91, 6-[(4-Hydroxy-4-methylpiperidin-1-yl)carbonyl]-3-(2-phenylethyl)-1-(3,3,3-trifluoropropyl)thieno[2,3-d]pyrimidine-2,4(1H,3H)-dione], 260 nM.
As to `CCn1c(=O)c2c(C)c(C(=O)N3CCC(O)(C(F)(F)F)CC3)sc2n(CCC(F)(F)F)c1=O` [Example 22, 3-Ethyl-6-{[4-hydroxy-4-(trifluoromethyl)piperidin-1-yl]carbonyl}-5-methyl-1-(3,3,3-trifluoropropyl)thieno[2,3-d]pyrimidine-2,4(1H,3H)-dione], the IC50 came to 67 nM.
Then `C=C(Cn1c(=O)n(CC)c(=O)c2c(C)c(C(=O)N3CCC(O)CC3)sc21)C(F)(F)F` [Example 58, 3-Ethyl-6-[(4-hydroxypiperidin-1-yl)carbonyl]-5-methyl-1-[2-(trifluoromethyl)prop-2-en-1-yl]thieno[2,3-d]pyrimidine-2,4(1H,3H)-dione], with 380 nM; and `CCn1c(=O)c2c(C(F)(F)F)c(C(=O)N3CCC(O)CC3)sc2n(CCC(F)(F)F)c1=O` [Example 25, 3-Ethyl-6-[(4-hydroxypiperidin-1-yl)carbonyl]-5-(trifluoromethyl)-1-(3,3,3-trifluoropropyl)thieno[2,3-d]pyrimidine-2,4(1H,3H)-dione], with 49 nM; and `Cc1c(C(=O)N2CCC(O)CC2)sc2c1c(=O)n(CC(O)c1ccccc1)c(=O)n2CCC(F)(F)F` (single isomer, unassigned) [Example 101, 3-(2-Hydroxy-2-phenylethyl)-6-[(4-hydroxypiperidin-1-yl)carbonyl]-5-methyl-1-(3,3,3-trifluoropropyl)thieno[2,3-d]pyrimidine-2,4(1H,3H)-dione], with 1200 nM.
Then `COc1ccc(CCn2c(=O)c3c(C)c(C(=O)N4CCC(O)CC4)sc3n(CCC(F)(F)F)c2=O)cc1` [Example 14, 6-[(4-Hydroxypiperidin-1-yl)carbonyl]-3-[2-(4-methoxyphenyl)ethyl]-5-methyl-1-(3,3,3-trifluoropropyl)thieno [2,3-d]pyrimidine-2,4(1H,3H)-dione], with 190 nM; and `Cc1c(C(=O)N2CCNC(=O)C2)sc2c1c(=O)n(CCc1cccnc1)c(=O)n2CCC=C(F)F` [Example 34, 1-(4,4-Difluorobut-3-en-1-yl)-5-methyl-6-[(3-oxopiperazin-1-yl)carbonyl]-3-[2-(pyridin-3-yl)ethyl]thieno[2,3-d]pyrimidine-2,4(1H,3H)-dione], with 120 nM; and `Cc1c(C(=O)N2CCC(O)CC2)sc2c1c(=O)n(CC(C)c1ccccc1)c(=O)n2CCC(F)(F)F` (racemic) [Example 43, 6-[(4-Hydroxypiperidin-1-yl)carbonyl]-5-methyl-3-(2-phenylpropyl)-1-(3,3,3-trifluoropropyl)thieno[2,3-d]pyrimidine-2,4(1H,3H)-dione (racemate)], with 6.3 nM.
Then `CCn1c(=O)c2c(C)c(C(=O)N3CCC(O)CC3)sc2n(CCOC)c1=O` [Example 20, 3-Ethyl-6-[(4-hydroxypiperidin-1-yl)carbonyl]-1-(2-methoxyethyl)-5-methylthieno[2,3-d]pyrimidine-2,4(1H,3H)-dione], with 340 nM; and `CCn1c(=O)c2c(C)c(C(=O)N3CCC(O)CC3)sc2n(CCC=C(F)F)c1=O` [Example 19, 1-(4,4-Difluorobut-3-en-1-yl)-3-ethyl-6-[(4-hydroxypiperidin-1-yl)carbonyl]-5-methylthieno[2,3-d]pyrimidine-2,4(1H,3H)-dione], with 92 nM.
`CCn1c(=O)c2c(C(F)F)c(C(=O)N3CCC(O)(CC)CC3)sc2n(CCC(F)(F)F)c1=O` [Example 125, 5-(Difluoromethyl)-3-ethyl-6-[(4-ethyl-4-hydroxypiperidin-1-yl)carbonyl]-1-(3,3,3-trifluoropropyl)thieno[2,3-d]pyrimidine-2,4(1H,3H)-dione]: the IC50 is 48 nM.
To `CCn1c(=O)c2c(C)c(C(=O)N3CCC(O)CC3)sc2n(CCC(C)C)c1=O` [Example 134, 3-Ethyl-6-[(4-hydroxypiperidin-1-yl)carbonyl]-5-methyl-1-(3-methylbutyl)thieno[2,3-d]pyrimidine-2,4(1H,3H)-dione] belongs 360 nM; to `Cc1c(C(=O)N2CCC(O)CC2)sc2c1c(=O)n(CCc1ccccc1F)c(=O)n2CCC=C(F)F` [Example 5, 1-(4,4-Difluorobut-3-en-1-yl)-3-[2-(2-fluorophenyl)ethyl]-6-[(4-hydroxypiperidin-1-yl)carbonyl]-5-methylthieno[2,3-d]pyrimidine-2,4(1H,3H)-dione], 52 nM; to `O=C(c1cc2c(=O)n(CCc3ccccc3)c(=O)n(CCC(F)(F)F)c2s1)N1CCC(O)(CO)CC1` [Example 92, 6-{[4-Hydroxy-4-(hydroxymethyl)piperidin-1-yl]carbonyl}-3-(2-phenylethyl)-1-(3,3,3-trifluoropropyl)thieno[2,3-d]pyrimidine-2,4(1H,3H)-dione], 370 nM.
For the molecule `COC(Cn1c(=O)c2c(C)c(C(=O)N3CCC(O)(CO)CC3)sc2n(CCC(F)(F)F)c1=O)C(F)(F)F` (single isomer, unassigned) [Example 115, 6-{[4-Hydroxy-4-(hydroxymethyl)piperidin-1-yl]carbonyl}-5-methyl-3-(3,3,3-trifluoro-2-methoxypropyl)-1-(3,3,3-trifluoropropyl)thieno[2,3-d]pyrimidine-2,4(1H,3H)-dione], the 50% inhibitory concentration (IC50) turned out to be 610 nM.

Broadly, the IC50 is the point on the concentration scale where inhibition reaches its midpoint.
